One test concerns the target T1, AtCHI1-FL-WT (Arabidopsis thaliana, UniProt P41088).
T1 construct: gene CHI1; full-length; N-terminal 8X-His tag
T1 sequence (P41088 1-246): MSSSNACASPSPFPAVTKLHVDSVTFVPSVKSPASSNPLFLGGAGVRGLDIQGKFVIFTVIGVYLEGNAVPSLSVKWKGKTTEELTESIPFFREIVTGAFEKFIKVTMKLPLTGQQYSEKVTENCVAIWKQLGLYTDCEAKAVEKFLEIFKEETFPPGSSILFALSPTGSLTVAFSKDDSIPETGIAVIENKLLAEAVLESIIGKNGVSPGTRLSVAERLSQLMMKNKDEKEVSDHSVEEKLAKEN
Briefly: chalcone isomerase assay, depletion of A381. It is filed as biochemical. The following applies: 10 nM protein, 200 μM naringenin chalcone, 50 mM Hepes pH 7.5, 150 mM NaCl, 5% EtOH; product naringenin.

Another test concerns the target T2, AtFAP1-Nd45-WT (Arabidopsis thaliana, UniProt Q9M1X2).
T2 construct: gene FAP1
The note with it: 5 μM protein, 50 μM fatty acid, 100 mM Hepes pH 7.5, 150 mM NaCl, 1 h at RT; versus DMSO.

T2 sequence (Q9M1X2 46-279): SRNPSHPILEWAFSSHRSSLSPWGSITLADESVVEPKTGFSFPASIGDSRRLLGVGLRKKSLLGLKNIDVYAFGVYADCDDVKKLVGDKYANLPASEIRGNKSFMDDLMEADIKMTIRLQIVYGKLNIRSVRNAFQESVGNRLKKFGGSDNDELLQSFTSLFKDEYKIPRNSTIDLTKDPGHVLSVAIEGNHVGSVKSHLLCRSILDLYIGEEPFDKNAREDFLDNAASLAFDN

Take `O=C(/C=C/c1ccc(O)cc1)c1c(O)cc(O)cc1O` [naringenin chalcone]: the “chalcone isomerase assay, depletion of A381” value at AtCHI1-FL-WT is “Only AtCHI-WT rapidly converted naringenin chalcone to naringenin”.
For the molecule `CC/C=C\C/C=C\C/C=C\CCCCCCCC(=O)O` [Linolenic acid], at AtFAP1-Nd45-WT, the ΔTm entry is given as “AtFAP1-Nd45-WT was the only protein stabilized by the addition of linolenic acid”.

These data come from article PMC9996372, “Aim18p and Aim46p are chalcone isomerase domain–containing mitochondrial hemoproteins in Saccharomyces cerevisiae” (The Journal of Biological Chemistry, 2023).
